The values below come from ChEMBL document CHEMBL1909046, “DrugMatrix in vitro pharmacology data”.

By IC50 is commonly meant the concentration that inhibits the measured activity by half. By Ki is commonly meant a dissociation constant, usually derived from enzyme kinetics or from competition with a known ligand.

Assay [1] deals with T1, Muscarinic acetylcholine receptor M2 (Homo sapiens, UniProt P08172).
T1 sequence (P08172 whole entry): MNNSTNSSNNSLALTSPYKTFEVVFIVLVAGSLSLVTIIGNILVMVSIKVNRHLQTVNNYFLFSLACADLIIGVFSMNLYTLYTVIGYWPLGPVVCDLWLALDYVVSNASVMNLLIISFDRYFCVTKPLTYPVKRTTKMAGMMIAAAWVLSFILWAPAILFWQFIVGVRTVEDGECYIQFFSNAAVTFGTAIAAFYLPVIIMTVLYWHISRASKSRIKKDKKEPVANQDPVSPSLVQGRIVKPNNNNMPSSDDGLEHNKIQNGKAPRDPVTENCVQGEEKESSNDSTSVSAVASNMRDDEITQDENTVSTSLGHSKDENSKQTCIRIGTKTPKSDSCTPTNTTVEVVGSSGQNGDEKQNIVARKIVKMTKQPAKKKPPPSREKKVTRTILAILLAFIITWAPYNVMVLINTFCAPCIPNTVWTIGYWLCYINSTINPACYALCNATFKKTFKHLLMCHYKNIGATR
The class given is cell membranes, CHO-K1, Membrane. To be noted: cho-k1.

Assay [2] deals with T2, Caspase-1 (Homo sapiens, UniProt P29466).
T2 sequence (P29466 whole entry): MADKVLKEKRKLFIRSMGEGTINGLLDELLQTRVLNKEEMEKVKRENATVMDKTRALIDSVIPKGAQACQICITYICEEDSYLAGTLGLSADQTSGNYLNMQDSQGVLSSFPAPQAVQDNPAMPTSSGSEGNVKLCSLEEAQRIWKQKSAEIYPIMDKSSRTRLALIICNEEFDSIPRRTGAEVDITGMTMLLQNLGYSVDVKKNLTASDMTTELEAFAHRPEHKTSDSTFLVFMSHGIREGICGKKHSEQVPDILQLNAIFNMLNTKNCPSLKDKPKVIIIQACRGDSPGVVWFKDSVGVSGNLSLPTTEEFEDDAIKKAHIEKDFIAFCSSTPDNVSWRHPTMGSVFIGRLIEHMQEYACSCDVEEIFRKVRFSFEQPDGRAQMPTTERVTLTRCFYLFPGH
Further details: species or system Escherichia coli.

In assay [3] the target is D(3) dopamine receptor (Homo sapiens, UniProt P35462). The assay is described as follows: DRUGMATRIX: Dopamine D3 radioligand binding (ligand: [3H] Spiperone). The assay is classed as cell membranes, CHO, Membrane. To be noted: cho.
Chain of D(3) dopamine receptor (P35462 whole entry): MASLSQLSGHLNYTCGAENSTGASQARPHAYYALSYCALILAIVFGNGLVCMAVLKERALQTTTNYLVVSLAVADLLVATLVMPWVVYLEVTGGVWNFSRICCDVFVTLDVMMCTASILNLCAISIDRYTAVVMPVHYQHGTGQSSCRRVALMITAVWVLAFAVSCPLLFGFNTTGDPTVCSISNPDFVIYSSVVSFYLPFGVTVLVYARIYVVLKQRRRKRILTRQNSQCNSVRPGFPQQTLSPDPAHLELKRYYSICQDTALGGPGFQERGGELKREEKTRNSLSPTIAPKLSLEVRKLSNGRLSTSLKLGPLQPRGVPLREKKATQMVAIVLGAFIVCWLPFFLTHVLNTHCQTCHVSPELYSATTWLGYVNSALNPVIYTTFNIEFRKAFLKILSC
Assay [4] concerns the target T3, 5-hydroxytryptamine receptor 1A (Rattus norvegicus, UniProt P19327). Note: in other assays of this panel Not Active means under 50% inhibition at 10 µM.
T3 sequence (P19327 whole entry): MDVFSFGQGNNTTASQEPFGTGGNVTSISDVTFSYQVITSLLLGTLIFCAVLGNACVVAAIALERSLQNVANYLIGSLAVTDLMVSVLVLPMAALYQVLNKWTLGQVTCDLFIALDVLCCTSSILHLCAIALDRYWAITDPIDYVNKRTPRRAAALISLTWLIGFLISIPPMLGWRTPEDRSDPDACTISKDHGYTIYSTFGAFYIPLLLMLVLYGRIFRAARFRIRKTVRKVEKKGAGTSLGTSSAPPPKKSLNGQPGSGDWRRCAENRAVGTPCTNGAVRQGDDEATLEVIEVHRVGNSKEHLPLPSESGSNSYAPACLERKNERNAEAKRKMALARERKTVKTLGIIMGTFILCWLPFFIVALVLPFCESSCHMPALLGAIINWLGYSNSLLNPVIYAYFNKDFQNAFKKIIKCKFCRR
The assay is classed as cell membranes, CHO-K1, Membrane.

A short description of assay [5]: DRUGMATRIX: Calcium Channel Type L, Phenylalkylamine radioligand binding (ligand: [3H] (-)-Desmethoxyverapamil (D-888)). The assay is classed as cell membranes, Rattus norvegicus, Wistar, Brain, Membrane. As to conditions: Not Active = under 50% inhibition at 10 µM.

As for `CC(=O)OCC(CCn1cnc2cnc(N)nc21)COC(C)=O` [FAMCICLOVIR], the IC50 entry in assay [1], in assay [2], in assay [3], in assay [4] (cho-k1) and in assay [5] was “Not Active” each time. Moreover, the Ki entry in assay [5] is listed as “Not Active”.

As for `O=C(O)Cc1ccc(-c2ccccc2)cc1` [FELBINAC], the IC50 result in assay [1], in assay [2], in assay [3], in assay [4] (cho-k1) and in assay [5] was “Not Active” in each case. The Ki result in assay [5] is “Not Active”.

Turning to `CCOC(=O)C1=C(C)NC(C)=C(C(=O)OC)C1c1cccc(Cl)c1Cl` (stereo not given) [FELODIPINE], the IC50 entry in assay [1], in assay [2], in assay [3], in assay [4] (cho-k1) and in assay [5] was “Not Active” in each case. For the same molecule, the Ki entry in assay [5] is “Not Active”.

Regarding `CC(C(=O)O)c1ccc(-c2ccccc2)c(F)c1` (stereo not given) [FLURBIPROFEN], the half-inhibitory concentration (IC50) entry in assay [1], in assay [2], in assay [3], in assay [4] (cho-k1) and in assay [5] was “Not Active” each time. In assay [5], the Ki result is reported as “Not Active”.

Regarding `Cc1cn[nH]c1` [FOMEPIZOLE], the IC50 entry in assay [1], in assay [2], in assay [3], in assay [4] (cho-k1) and in assay [5] was “Not Active” in each case. For the same molecule, the Ki entry in assay [5] is recorded as “Not Active”.

In the case of `NC[C@@H]1O[C@H](O[C@H]2[C@@H](O)[C@H](O[C@@H]3[C@@H](O)[C@H](N)C[C@H](N)[C@H]3O[C@H]3O[C@H](CN)[C@@H](O)[C@H](O)[C@H]3N)O[C@@H]2CO)[C@H](N)[C@@H](O)[C@@H]1O` [FRAMYCETIN], the IC50 entry in assay [1], in assay [2], in assay [3], in assay [4] (cho-k1) and in assay [5] was “Not Active” each time. The Ki result in assay [5] is given as “Not Active”.

Regarding `C[C@H]([C@](O)(Cn1cncn1)c1ccc(F)cc1F)S(C)(=O)=O` [GENACONAZOLE], the IC50 result in assay [1], in assay [2], in assay [3], in assay [4] (cho-k1) and in assay [5] was “Not Active” throughout. Moreover, the Ki result in assay [5] is “Not Active”.

With `Cc1c(F)c(N2CCNC(C)C2)cc2c1c(=O)c(C(=O)O)cn2C1CC1` (stereo not given) [GREPAFLOXACIN], the IC50 result in assay [1], in assay [2], in assay [3], in assay [4] (cho-k1) and in assay [5] was “Not Active” throughout. For the same molecule, in assay [5], the Ki result is “Not Active”.

As to `COc1ccccc1OCC(O)CO` (stereo not given) [GUAIFENESIN], the IC50 entry in assay [1], in assay [2], in assay [3], in assay [4] (cho-k1) and in assay [5] was “Not Active” in each case. Moreover, in assay [5], the Ki entry is “Not Active”.

Regarding `N=C(N)N/N=C/c1c(Cl)cccc1Cl` [GUANABENZ], the IC50 entry in assay [1] was “Not Active”; in assay [2] it was “Not Active”; in assay [3] it was “Not Active”; in assay [4] (read-out: IC50), 2.07 µM; in assay [5], “Not Active”. Also, the results for the Ki in assay [4] (read-out: Ki) and in assay [5] were 1.18 µM and “Not Active”, respectively.

With `C[C@]12CCC(=O)C=C1CC[C@@H]1[C@@H]2[C@@H](O)C[C@@]2(C)[C@H]1CC[C@]2(O)C(=O)CO` [HYDROCORTISONE], the IC50 entry in assay [1], in assay [2], in assay [3], in assay [4] (cho-k1) and in assay [5] was “Not Active” throughout. Moreover, the Ki result in assay [5] was “Not Active”.

Consider `C/C=C\c1ccc(O)c(OC)c1` [ISOEUGENOL], for which the IC50 entry in assay [1], in assay [2], in assay [3], in assay [4] (cho-k1) and in assay [5] was “Not Active” each time. Moreover, the Ki result in assay [5] is reported as “Not Active”.

As to `NC[C@H]1O[C@H](O[C@H]2[C@H](O)[C@@H](O[C@H]3O[C@H](CO)[C@@H](O)[C@H](N)[C@H]3O)[C@H](N)C[C@@H]2N)[C@H](O)[C@@H](O)[C@@H]1O` [KANAMYCIN], the IC50 result in assay [1], in assay [2], in assay [3], in assay [4] (cho-k1) and in assay [5] was “Not Active” throughout. For the same molecule, the Ki entry in assay [5] was “Not Active”.

`CC[C@H](C)C(=O)O[C@H]1C[C@@H](C)C=C2C=C[C@H](C)[C@H](CC[C@@H]3C[C@@H](O)CC(=O)O3)[C@H]21` [LOVASTATIN]: the IC50 entry in assay [1] is “Not Active”; in assay [2], “Not Active”; in assay [3], “Not Active”; in assay [4] (cho-k1), “Not Active”; in assay [5] (read-out: IC50), 6.32 µM. Besides, in assay [5] (read-out: Ki), the Ki is 6.14 µM.

For `CC(C(=O)O)c1ccc(CC2CCCC2=O)cc1` (stereo not given) [LOXOPROFEN], the IC50 entry in assay [1], in assay [2], in assay [3], in assay [4] (cho-k1) and in assay [5] was “Not Active” in each case. In addition, the Ki entry in assay [5] was “Not Active”.

Take `Cc1cccc(Nc2ccccc2C(=O)O)c1C` [MEFENAMIC ACID]: the IC50 entry in assay [1], in assay [2], in assay [3], in assay [4] (cho-k1) and in assay [5] was “Not Active” throughout. In addition, in assay [5], the Ki result is reported as “Not Active”.

For the molecule `CC(=O)O[C@]1(C(C)=O)CC[C@H]2[C@@H]3C=C(C)C4=CC(=O)CC[C@]4(C)[C@H]3CC[C@@]21C` [MEGESTROL ACETATE], the IC50 result in assay [1], in assay [2], in assay [3], in assay [4] (cho-k1) and in assay [5] was “Not Active” each time. In addition, the Ki result in assay [5] is “Not Active”.

As for `COc1ccccc1OCC(O)COC(N)=O` (stereo not given) [METHOCARBAMOL], the IC50 entry in assay [1], in assay [2], in assay [3], in assay [4] (cho-k1) and in assay [5] was “Not Active” throughout. Moreover, in assay [5], the Ki entry is “Not Active”.

`CN(Cc1cnc2nc(N)nc(N)c2n1)c1ccc(C(=O)N[C@@H](CCC(=O)O)C(=O)O)cc1` [METHOTREXATE]: the IC50 entry in assay [1], in assay [2], in assay [3], in assay [4] (cho-k1) and in assay [5] was “Not Active” each time. Moreover, in assay [5], the Ki result was “Not Active”.

For `COC(=O)c1ccccc1O` [METHYL SALICYLATE], the IC50 result in assay [1], in assay [2], in assay [3], in assay [4] (cho-k1) and in assay [5] was “Not Active” in each case. Moreover, the Ki result in assay [5] is on record as “Not Active”.

Consider `COc1ccc2cc(CCC(C)=O)ccc2c1` [NABUMETONE], for which the IC50 entry in assay [1], in assay [2], in assay [3], in assay [4] (cho-k1) and in assay [5] was “Not Active” in each case. For the same molecule, the Ki entry in assay [5] is recorded as “Not Active”.

For `O=C(O)c1cccnc1` [NIACIN], the IC50 result in assay [1], in assay [2], in assay [3], in assay [4] (cho-k1) and in assay [5] was “Not Active” in each case. In assay [5], the Ki entry was “Not Active”.

For the molecule `CNC(=C[N+](=O)[O-])NCCSCc1csc(CN(C)C)n1` [NIZATIDINE], the IC50 entry in assay [1], in assay [2], in assay [3], in assay [4] (cho-k1) and in assay [5] was “Not Active” each time. For the same molecule, in assay [5], the Ki result is on record as “Not Active”.

Regarding `C[C@]12C/C(=C/O)C(=O)C[C@@H]1CC[C@@H]1[C@@H]2CC[C@@]2(C)[C@H]1CC[C@]2(C)O` [OXYMETHOLONE], the IC50 result in assay [1], in assay [2], in assay [3], in assay [4] (cho-k1) and in assay [5] was “Not Active” throughout. For the same molecule, the Ki entry in assay [5] is “Not Active”.
